{"source": "patent US20260000656A1", "about": "“ANTIFUNGAL AGENTS WITH ENHANCED ACTIVITY IN ACIDIC PH” (Scynexis, Inc., priority 2017, published 2026)", "test_system": "C. albicans isolates", "assay": "Broth microdilution susceptibility (CLSI M27-A3) at different medium pH", "format": "cell-based, Candida albicans", "procedure": "Ten strains each of C. glabrata and C. albicans vaginal isolates were tested. The strains were obtained from recent clinical trial patients with vulvovaginal candidiasis (VVC) prior to treatment. Candida strains were obtained from the Mycology Reference Library (MRL) at Case Western Reserve University School of Medicine, Ohio, United States.\nSusceptibility testing was performed using a broth microdilution method, according to CLSI M27-A3 guidelines (CLSI. 2008. Reference Method for Broth Dilution Antifungal Susceptibility Testing of Yeasts; Approved Standard—Third Edition. Clinical and Laboratory Standards Institute, CLSI document M27-A3). Antifungals and concentrations tested were SCY-078 and micafungin (both at concentrations within the range of 0.015 to 8 μg/ml) and fluconazole (at concentrations within the range of 0.125 to 64 μg/ml). A 0.1-ml C. albicans and C. glabrata inoculum of 0.5-2.5×10^3 blastospores/ml in RPMI 1640 medium was added to each microdilution well. ATCC strains of Candida parapsilosis and Candida krusei QC isolates were also included concurrently to ensure quality control. Antifungal susceptibility testing was carried out for each isolate in RPMI 1640 at pH 7 (to mimic RPMI medium used in testing the susceptibility of yeast by the CLSI M-27A3 document), pH 5.7, and pH 4.5 (to mimic the pH of the vaginal cavity) by adjusting the pH of the media using NaOH or HCl. […] Agents Chemother., 43: 1383-1386 (1999).\n[…] SCY-078 powder was manufactured by Avista, Laboratories, NC. Micafungin and fluconazole were sourced from LGM Pharma.", "key": {"[1]": {"conditions": "50% inhibition, pH 4.5, 24 h, 10 vaginal isolates"}}, "note": "Like-named read-outs stand apart in the source and are kept apart here.", "data": [{"molecule": "CC(C)[C@@H](C)[C@@]1(C)CC[C@]2(C)[C@H]3CC[C@@H]4[C@@]5(COC[C@]4(C)[C@@H](OC[C@](C)(N)C(C)(C)C)[C@H](n4ncnc4-c4ccncc4)C5)C3=CC[C@@]2(C)[C@@H]1C(=O)O", "note": "[SCY-078]", "values": [{"measurement": "MIC50", "setting": "[1]", "value": "< 0.016", "unit": "µg/mL"}, {"measurement": "MIC90", "setting": "[1]", "value": "< 0.016", "unit": "µg/mL"}, {"measurement": "MIC range", "setting": "[1]", "value": "<0.016 to 0.031", "unit": "µg/mL"}, {"measurement": "MIC range", "setting": "50% inhibition, pH 5.72, 24 h, 10 vaginal isolates", "value": "0.125 to .25 µg/mL"}, {"measurement": "MIC range", "setting": "50% inhibition, pH 7.0, 24 h, 10 vaginal isolates", "value": "0.125 to 0.5", "unit": "µg/mL"}, {"measurement": "MIC range", "setting": "100% inhibition, pH 4.5, 24 hours, 10 isolates", "value": "<0.016 to 4", "unit": "µg/mL"}, {"measurement": "MIC range", "setting": "100% inhibition, pH 5.72, 24 hours, 10 isolates", "value": "0.25 to 2", "unit": "µg/mL"}, {"measurement": "MIC range", "setting": "100% inhibition, pH 7.0, 24 hours, 10 isolates", "value": "0.25 to 4", "unit": "µg/mL"}, {"measurement": "reduction in MIC50 at pH 4.5 compared to the MIC50 at pH 7.0", "setting": "C. albicans isolates", "value": 16, "unit": "fold"}, {"measurement": "MIC50", "setting": "Candida albicans, 24 h, pH 4.5, 50% inhibition, pH 4.5, 24 h, 10 vaginal isolates, read-out: MIC50", "value": "< 0.016", "unit": "µg/mL"}, {"measurement": "MIC90", "setting": "Candida albicans, 24 h, pH 4.5, 50% inhibition, pH 4.5, 24 h, 10 vaginal isolates, read-out: MIC90", "value": "< 0.016", "unit": "µg/mL"}, {"measurement": "MIC50", "setting": "Candida albicans, 24 h, pH 4.5, 100% inhibition, pH 4.5, 24 hours, 10 isolates, read-out: MIC50", "value": 0.031, "unit": "µg/mL"}, {"measurement": "MIC90", "setting": "Candida albicans, 24 h, pH 4.5, 100% inhibition, pH 4.5, 24 hours, 10 isolates, read-out: MIC90", "value": 0.031, "unit": "µg/mL"}, {"measurement": "MIC", "setting": "Candida albicans, 24 h, pH 4.5, C. albicans MRL 34366, pH 4.5, 24 hours, read-out: MIC (50% inhibition)", "value": 0.031, "unit": "µg/mL"}, {"measurement": "MIC", "setting": "Candida albicans, 24 h, pH 4.5, C. albicans MRL 34366, pH 4.5, 24 hours, read-out: MIC (100% inhibition)", "value": 0.031, "unit": "µg/mL"}, {"measurement": "MIC", "setting": "Candida albicans, 24 h, pH 4.5, C. albicans MRL 34367, pH 4.5, 24 hours, read-out: MIC (50% inhibition)", "value": "< 0.016", "unit": "µg/mL"}, {"measurement": "MIC", "setting": "Candida albicans, 24 h, pH 4.5, C. albicans MRL 34367, pH 4.5, 24 hours, read-out: MIC (100% inhibition)", "value": 0.031, "unit": "µg/mL"}, {"measurement": "MIC", "setting": "Candida albicans, 24 h, pH 4.5, C. albicans MRL 34372, pH 4.5, 24 hours, read-out: MIC (50% inhibition)", "value": "< 0.016", "unit": "µg/mL"}, {"measurement": "MIC", "setting": "Candida albicans, 24 h, pH 4.5, C. albicans MRL 34372, pH 4.5, 24 hours, read-out: MIC (100% inhibition)", "value": "< 0.016", "unit": "µg/mL"}, {"measurement": "MIC", "setting": "Candida albicans, 24 h, pH 4.5, C. albicans MRL 34373, pH 4.5, 24 hours, read-out: MIC (50% inhibition)", "value": "< 0.016", "unit": "µg/mL"}, {"measurement": "MIC", "setting": "Candida albicans, 24 h, pH 4.5, C. albicans MRL 34373, pH 4.5, 24 hours, read-out: MIC (100% inhibition)", "value": "< 0.016", "unit": "µg/mL"}, {"measurement": "MIC", "setting": "Candida albicans, 24 h, pH 4.5, C. albicans MRL 34374, pH 4.5, 24 hours, read-out: MIC (50% inhibition)", "value": "< 0.016", "unit": "µg/mL"}, {"measurement": "MIC", "setting": "Candida albicans, 24 h, pH 4.5, C. albicans MRL 34374, pH 4.5, 24 hours, read-out: MIC (100% inhibition)", "value": "< 0.016", "unit": "µg/mL"}, {"measurement": "MIC", "setting": "Candida albicans, 24 h, pH 4.5, C. albicans MRL 34385, pH 4.5, 24 hours, read-out: MIC (50% inhibition)", "value": "< 0.016", "unit": "µg/mL"}, {"measurement": "MIC", "setting": "Candida albicans, 24 h, pH 4.5, C. albicans MRL 34385, pH 4.5, 24 hours, read-out: MIC (100% inhibition)", "value": 0.031, "unit": "µg/mL"}, {"measurement": "MIC", "setting": "Candida albicans, 24 h, pH 4.5, C. albicans MRL 34389, pH 4.5, 24 hours, read-out: MIC (50% inhibition)", "value": "< 0.016", "unit": "µg/mL"}, {"measurement": "MIC", "setting": "Candida albicans, 24 h, pH 4.5, C. albicans MRL 34389, pH 4.5, 24 hours, read-out: MIC (100% inhibition)", "value": 0.031, "unit": "µg/mL"}, {"measurement": "MIC", "setting": "Candida albicans, 24 h, pH 4.5, C. albicans MRL 34399, pH 4.5, 24 hours, read-out: MIC (50% inhibition)", "value": "< 0.016", "unit": "µg/mL"}, {"measurement": "MIC", "setting": "Candida albicans, 24 h, pH 4.5, C. albicans MRL 34399, pH 4.5, 24 hours, read-out: MIC (100% inhibition)", "value": 0.031, "unit": "µg/mL"}, {"measurement": "MIC", "setting": "Candida albicans, 24 h, pH 4.5, C. albicans MRL 34408, pH 4.5, 24 hours, read-out: MIC (50% inhibition)", "value": "< 0.016", "unit": "µg/mL"}, {"measurement": "MIC", "setting": "Candida albicans, 24 h, pH 4.5, C. albicans MRL 34408, pH 4.5, 24 hours, read-out: MIC (100% inhibition)", "value": 4, "unit": "µg/mL"}, {"measurement": "MIC", "setting": "Candida albicans, 24 h, pH 4.5, C. albicans MRL 34449, pH 4.5, 24 hours, read-out: MIC (50% inhibition)", "value": "< 0.016", "unit": "µg/mL"}, {"measurement": "MIC", "setting": "Candida albicans, 24 h, pH 4.5, C. albicans MRL 34449, pH 4.5, 24 hours, read-out: MIC (100% inhibition)", "value": 0.031, "unit": "µg/mL"}, {"measurement": "MIC50", "setting": "Candida albicans, 24 h, pH 5.72, 50% inhibition, pH 5.72, 24 h, 10 vaginal isolates, read-out: MIC50", "value": 0.25, "unit": "µg/mL"}, {"measurement": "MIC90", "setting": "Candida albicans, 24 h, pH 5.72, 50% inhibition, pH 5.72, 24 h, 10 vaginal isolates, read-out: MIC90", "value": 0.25, "unit": "µg/mL"}, {"measurement": "MIC50", "setting": "Candida albicans, 24 h, pH 5.72, 100% inhibition, pH 5.72, 24 hours, 10 isolates, read-out: MIC50", "value": 0.25, "unit": "µg/mL"}, {"measurement": "MIC90", "setting": "Candida albicans, 24 h, pH 5.72, 100% inhibition, pH 5.72, 24 hours, 10 isolates, read-out: MIC90", "value": 0.5, "unit": "µg/mL"}, {"measurement": "MIC", "setting": "Candida albicans, 24 h, pH 5.72, C. albicans MRL 34366, pH 5.72, 24 hours, read-out: MIC (50% inhibition)", "value": 0.25, "unit": "µg/mL"}, {"measurement": "MIC", "setting": "Candida albicans, 24 h, pH 5.72, C. albicans MRL 34366, pH 5.72, 24 hours, read-out: MIC (100% inhibition)", "value": 0.5, "unit": "µg/mL"}, {"measurement": "MIC", "setting": "Candida albicans, 24 h, pH 5.72, C. albicans MRL 34367, pH 5.72, 24 hours, read-out: MIC (50% inhibition)", "value": 0.125, "unit": "µg/mL"}]}]}
